According to patent publication US20130035326A1 (AMBIT BIOSCIENCES CORPORATION, priority 2009, published 2013):

Columns and labels:
CSF-1R kinase = molecular target: T1, CSF-1R kinase (Homo sapiens, UniProt P07333); assay: Competition binding assay, CSF-1R Kd
T1 construct: made in house; host or cells: T7 phage display or HEK-293 cells
Outline: (§1)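 Readout: qPCR of kinase eluted from ligand-coated beads. T7 phage-fused or HEK-293-expressed DNA-tagged kinase, 1 h RT equilibration with compound; Kd from 11-pt 3-fold series.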

KIT kinase = molecular target: T2, KIT kinase (Homo sapiens, UniProt P10721); assay: Competition binding assay, KIT Kd
T2 construct: made in house; host or cells: T7 phage display or HEK-293 cells
Outline: as §1

[1] = molecular target: kinase panel containing either 359 or 386 distinct kinases; assay: Selectivity score S10 from competition binding against a panel of kinases; conditions: compounds at 10 μM; for Kinase specificty: S(10)-359 panel: panel of 359 distinct kinases; for Kinase specificty: S(10)-386 panel: panel of 386 distinct kinases
Outline: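 Compounds were tested at 10 μM in competition binding against T7 phage-fused or HEK-293-expressed DNA-tagged kinases with immobilized affinity ligands, 1 h at room temperature. Bound kinase was quantified by qPCR as percent of DMSO control; S10 is the fraction of distinct kinases (mutants excluded) with POC below 10.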

FLT3 kinase = molecular target: T3, FLT3 kinase (Homo sapiens, UniProt P36888); assay: Competition binding assay, FLT3 Kd
T3 construct: made in house; host or cells: T7 phage display or HEK-293 cells
T3 sequence (P36888 27-993): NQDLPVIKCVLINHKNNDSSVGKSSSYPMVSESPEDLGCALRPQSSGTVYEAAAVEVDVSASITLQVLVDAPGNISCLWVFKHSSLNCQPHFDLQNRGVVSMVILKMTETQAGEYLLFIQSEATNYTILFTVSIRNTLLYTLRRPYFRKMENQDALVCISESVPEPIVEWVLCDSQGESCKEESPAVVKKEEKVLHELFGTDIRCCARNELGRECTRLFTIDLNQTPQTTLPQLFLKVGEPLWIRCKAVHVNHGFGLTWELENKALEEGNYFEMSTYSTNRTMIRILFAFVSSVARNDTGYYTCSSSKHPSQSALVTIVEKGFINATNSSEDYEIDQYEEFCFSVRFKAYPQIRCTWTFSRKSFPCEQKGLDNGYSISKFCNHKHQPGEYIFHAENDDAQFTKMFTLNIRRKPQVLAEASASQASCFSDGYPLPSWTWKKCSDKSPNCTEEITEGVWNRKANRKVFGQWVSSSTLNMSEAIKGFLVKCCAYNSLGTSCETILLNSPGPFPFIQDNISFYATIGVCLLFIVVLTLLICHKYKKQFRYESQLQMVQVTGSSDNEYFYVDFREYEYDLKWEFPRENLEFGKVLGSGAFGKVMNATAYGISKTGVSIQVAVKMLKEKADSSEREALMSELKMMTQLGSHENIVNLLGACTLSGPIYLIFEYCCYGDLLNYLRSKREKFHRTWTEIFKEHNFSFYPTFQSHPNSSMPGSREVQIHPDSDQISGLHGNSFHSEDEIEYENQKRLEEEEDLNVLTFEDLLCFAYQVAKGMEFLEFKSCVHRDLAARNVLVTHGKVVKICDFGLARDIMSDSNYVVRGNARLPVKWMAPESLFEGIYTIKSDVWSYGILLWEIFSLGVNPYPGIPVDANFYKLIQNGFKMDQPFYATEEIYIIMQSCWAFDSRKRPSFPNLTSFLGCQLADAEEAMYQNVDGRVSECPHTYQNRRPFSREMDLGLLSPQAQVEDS
Outline: as §1

MV4-11 cells = assay: MV4-11 cell proliferation assay (Alamar Blue); format: cell-based; conditions: Homo sapiens, MV4-11, 72 h, 3 days incubation
Outline: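 Flt3-ITD MV4-11 cells were serum-starved overnight in Iscove's with 0.5% FBS, then given compound at 9 half-log concentrations (0.5% DMSO) for 3 days at 37° C. Alamar Blue reduction was read after 3 h by fluorescence (560/590 nm). IC50 is the mean of duplicates versus negative control.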

T2 sequence (P10721 26-976): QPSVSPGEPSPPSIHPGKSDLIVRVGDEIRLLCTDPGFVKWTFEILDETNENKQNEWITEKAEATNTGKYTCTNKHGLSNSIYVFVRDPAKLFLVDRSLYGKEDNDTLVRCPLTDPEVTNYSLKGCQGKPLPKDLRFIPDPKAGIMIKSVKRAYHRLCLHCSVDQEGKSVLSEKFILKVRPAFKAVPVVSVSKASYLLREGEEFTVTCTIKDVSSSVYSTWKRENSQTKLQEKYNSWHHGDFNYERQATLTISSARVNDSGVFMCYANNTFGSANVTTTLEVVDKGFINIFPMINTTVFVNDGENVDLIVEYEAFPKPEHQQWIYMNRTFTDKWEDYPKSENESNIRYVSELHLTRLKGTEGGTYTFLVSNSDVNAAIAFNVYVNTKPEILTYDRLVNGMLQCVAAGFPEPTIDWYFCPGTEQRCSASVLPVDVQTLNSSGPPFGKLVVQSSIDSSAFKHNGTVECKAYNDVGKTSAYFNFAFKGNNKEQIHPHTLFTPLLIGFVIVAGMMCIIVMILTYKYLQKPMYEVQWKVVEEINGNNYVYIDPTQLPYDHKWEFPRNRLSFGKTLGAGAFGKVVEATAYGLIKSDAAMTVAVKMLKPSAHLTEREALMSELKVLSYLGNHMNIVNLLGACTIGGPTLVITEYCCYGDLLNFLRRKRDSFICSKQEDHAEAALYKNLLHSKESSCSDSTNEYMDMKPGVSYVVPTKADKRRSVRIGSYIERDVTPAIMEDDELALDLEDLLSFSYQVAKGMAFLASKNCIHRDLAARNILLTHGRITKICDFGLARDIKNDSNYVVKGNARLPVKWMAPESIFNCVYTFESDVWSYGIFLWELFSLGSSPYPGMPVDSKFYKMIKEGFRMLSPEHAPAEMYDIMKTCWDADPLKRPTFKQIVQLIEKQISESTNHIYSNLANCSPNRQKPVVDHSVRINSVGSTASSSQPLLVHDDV
T1 sequence (P07333 20-972): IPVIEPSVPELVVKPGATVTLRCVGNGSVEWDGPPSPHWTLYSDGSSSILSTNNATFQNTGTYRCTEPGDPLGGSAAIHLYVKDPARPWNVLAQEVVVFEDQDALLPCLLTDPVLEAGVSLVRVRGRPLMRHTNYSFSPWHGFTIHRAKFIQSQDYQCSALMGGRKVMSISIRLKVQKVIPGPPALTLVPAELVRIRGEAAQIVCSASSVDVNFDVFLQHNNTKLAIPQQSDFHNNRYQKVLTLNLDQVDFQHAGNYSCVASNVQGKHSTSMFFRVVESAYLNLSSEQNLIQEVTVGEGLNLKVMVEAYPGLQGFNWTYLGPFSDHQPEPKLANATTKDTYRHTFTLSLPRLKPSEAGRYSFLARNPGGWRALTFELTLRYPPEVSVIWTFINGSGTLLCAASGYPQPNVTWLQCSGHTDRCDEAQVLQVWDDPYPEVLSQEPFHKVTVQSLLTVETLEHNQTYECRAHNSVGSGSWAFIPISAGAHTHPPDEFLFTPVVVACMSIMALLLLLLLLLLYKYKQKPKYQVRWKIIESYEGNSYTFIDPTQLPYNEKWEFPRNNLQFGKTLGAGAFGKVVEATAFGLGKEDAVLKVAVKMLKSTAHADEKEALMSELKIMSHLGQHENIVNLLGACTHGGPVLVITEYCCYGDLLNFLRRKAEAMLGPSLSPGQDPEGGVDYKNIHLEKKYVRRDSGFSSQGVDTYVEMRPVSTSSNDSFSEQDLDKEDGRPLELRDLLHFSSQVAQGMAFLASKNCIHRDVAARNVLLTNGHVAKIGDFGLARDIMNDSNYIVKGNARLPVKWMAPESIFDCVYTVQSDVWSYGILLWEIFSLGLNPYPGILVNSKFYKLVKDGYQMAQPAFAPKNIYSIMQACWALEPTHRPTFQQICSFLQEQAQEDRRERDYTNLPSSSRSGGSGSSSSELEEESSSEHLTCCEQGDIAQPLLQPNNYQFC

Compound | Kd (CSF-1R kinase) [nM] | Kd (KIT kinase) [nM] | Kinase specificty: S(10)-359 panel [1] | Kd (FLT3 kinase) [nM] | IC50 (MV4-11 cells) [nM] | Kinase specificty: S(10)-386 panel [1]
CC(C)(C)c1cc(NC(=O)Nc2ccc(-c3cnc(NCCN4CCOCC4)c(C#N)c3)cc2)no1 [Example 6, 1-(5-tert-butylisoxazol-3-yl)-3-(4-(5-cyano-6-(2-morpholinoethylamino)pyridin-3-yl)phenyl)urea] | 10 to 100 | 1 to 10 | A (A≦0.1) | 1 to 10 | 1 to 10 | 
CC(C)(C)c1cc(NC(=O)Cc2ccc(-c3cnc(N)cc3C(F)(F)F)cc2)no1 [Example 156] | 10 to 100 | 1 to 10 |  | ≤ 1 | 10 to 100 | A (A≦0.1)
CS(=O)(=O)O.Nc1ccc(-c2ccc(NC(=O)Nc3cc(C4(C(F)(F)F)CCC4)on3)cc2)cn1 [Example 121, 5-(4-(3-(5-(1-(trifluoromethyl)cyclobutyl)isoxazol-3-yl)ureido)phenyl)pyridin-2-aminium methanesulfonate] | 10 to 100 | 1 to 10 |  | 1 to 10 | ≤ 1 | A (A≦0.1)
Cc1cc(-c2ccc(CC(=O)Nc3cc(C4(C)CC4)on3)cc2)cnc1N [Example 158] | ≤ 10 | ≤ 1 |  | ≤ 1 | 1 to 10 | A (A≦0.1)
CC(C)(C)c1cc(NC(=O)Nc2ccc(-c3ccc(N)nc3)cc2F)no1 [Example 14, 1-[4-(6-aminopyridin-3-yl)-2-fluorophenyl]-3-(5-tert-butylisoxazol-3-yl)-urea] | ≤ 10 | ≤ 1 | B (0.1<B≦0.2 nM) | ≤ 1 | ≤ 1 | 
CC(C)(C)c1cc(NC(=O)Cc2ccc(-c3cnc(N)c(C(F)F)c3)cc2)no1 [Example 163] | ≤ 10 | 1 to 10 |  | ≤ 1 | ≤ 1 | B (0.1<B≦0.2 nM)
COc1nc(N)ccc1-c1ccc(CC(=O)Nc2cc(C(C)(C)C)on2)cc1.CS(=O)(=O)O [Example 131, 5-(4-(2-(5-tert-butylisoxazol-3-ylamino)-2-oxoethyl)phenyl)-6-methoxypyridin-2-aminium methanesulfonate] | > 500 | 10 to 100 |  | 1 to 10 | 100 to 500 | A (A≦0.1)
CC(C)(c1cc(NC(=O)Cc2ccc(-c3ccc(N)nc3F)cc2)no1)C(F)(F)F.CS(=O)(=O)O [Example 142, 6-fluoro-5-(4-(2-oxo-2-(5-(1,1,1-trifluoro-2-methylpropan-2-yl)isoxazol-3-ylamino)ethyl)phenyl)pyridin-2-aminium methanesulfonate] | ≤ 10 | 1 to 10 |  | ≤ 1 | ≤ 1 | A (A≦0.1)
CC(C)(C)c1cc(NC(=O)Nc2ccc(-c3cnc(N)c(C#N)c3)cc2)no1 [Example 2, 1-[4-(6-amino-5-cyanopyridin-3-yl)-phenyl]-3-(5-tert-butylisoxazol-3-yl)urea] | ≤ 10 | 1 to 10 | B (0.1<B≦0.2 nM) | ≤ 1 | ≤ 1 | 
CC(C)(CF)c1cc(NC(=O)Nc2ccc(-c3ccc(N)nc3)cc2)on1 [Example 97, 1-(4-(6-aminopyridin-3-yl)phenyl)-3-(3-(1-fluoro-2-methylpropan-2-yl)isoxazol-5-yl)urea] | ≤ 10 | 1 to 10 |  | 1 to 10 | 1 to 10 | A (A≦0.1)
CC(C)(c1cc(NC(=O)Cc2ccc(-c3ccc(NCCN4CCOCC4)nc3)cc2)no1)C(F)(F)F.CS(=O)(=O)O [Example 109, 4-(2-(5-(4-(2-oxo-2-(5-(1,1,1-trifluoro-2-methylpropan-2-yl)isoxazol-3-ylamino)ethyl)phenyl)pyridin-2-ylamino)ethyl)morpholin-4-ium methanesulfonate] | ≤ 10 | 1 to 10 |  | ≤ 1 | ≤ 1 | B (0.1<B≦0.2 nM)

Continued, values first:

Kd (CSF-1R kinase) [nM] | Kd (KIT kinase) [nM] | Kinase specificty: S(10)-359 panel [1] | Kd (FLT3 kinase) [nM] | IC50 (MV4-11 cells) [nM] | Kinase specificty: S(10)-386 panel [1] | Compound
≤ 10 | ≤ 1 | B (0.1<B≦0.2 nM) | ≤ 1 | 1 to 10 |  | CC(CF)(CF)c1cc(NC(=O)Nc2ccc(-c3cnc(NCCN4CCOCC4)nc3)cc2)no1 [Example 52, 1-[5-(2-fluoro-1-fluoromethyl-1-methylethyl)isoxazol-3-yl]-3-{4-[2-(2-morpholin-4-yl-ethylamino)pyrimidin-5-yl]phenyl}urea]
≤ 10 | 1 to 10 | A (A≦0.1) | ≤ 1 | 1 to 10 |  | CC(C)(C)c1cc(NC(=O)Nc2ccc(-c3ccc(N)nc3)c(F)c2)no1 [Example 11, 1-(4-(6-aminopyridin-3-yl)-3-fluorophenyl)-3-(5-tert-butylisoxazol-3-yl)urea]
≤ 10 | ≤ 1 |  | ≤ 1 | 10 to 100 | A (A≦0.1) | Cc1nc(N)ccc1-c1ccc(CC(=O)Nc2cc(C3(C)CC3)on2)cc1 [Example 162]
≤ 10 | 1 to 10 |  | ≤ 1 | 1 to 10 | A (A≦0.1) | CC1(c2cc(NC(=O)Cc3ccc(-c4ccc(N)nc4)cc3)no2)COC1.CS(=O)(=O)O [Example 99, 5-(4-(2-((5-(3-methyloxetan-3-yl)isoxazol-3-yl)amino)-2-oxoethyl)phenyl)pyridin-2-aminium methanesulfonate]
≤ 10 | ≤ 1 | A (A≦0.1) | ≤ 1 | 1 to 10 |  | CC(C)(C)c1cc(NC(=O)Nc2ccc(-c3ccc(N)nc3)cn2)no1 [Example 17, 1-(6′-amino-[3,3′]bipyridinyl-6-yl)-3-(5-tert-butylisoxazol-3-yl)urea]
≤ 10 | ≤ 1 |  | ≤ 1 | 1 to 10 | A (A≦0.1) | CC(C)(C)c1cc(NC(=O)Cc2ncc(-c3ccc(N)nc3)cc2F)no1.CS(=O)(=O)O [Example 148, 6′-(2-(5-tert-butylisoxazol-3-ylamino)-2-oxoethyl)-5′-fluoro-3,3′-bipyridin-6-aminium methanesulfonate]
≤ 10 | ≤ 1 | B (0.1<B≦0.2 nM) | ≤ 1 | 1 to 10 |  | COCCNc1ncc(-c2ccc(NC(=O)Nc3cc(C(C)(C)C)on3)cc2)cn1 [Example 58, 1-(5-tert-butylisoxazol-3-yl)-3-{4-[2-(2-methoxyethylamino)pyrimidin-5-yl]-phenyl}urea]
≤ 10 | ≤ 1 | A (A≦0.1) | ≤ 1 | 1 to 10 |  | CC(C)(C)c1cc(NC(=O)Nc2ccc(-c3ccc(NCCN4CCOCC4)nc3)cc2)no1 [Example 7, 1-(5-tert-butyl-isoxazol-3-yl)-3-{4-[6-(2-morpholin-4-yl-ethylamino)-pyridin-3-yl]-phenyl}urea]
≤ 10 | 1 to 10 |  | 1 to 10 | 10 to 100 | A (A≦0.1) | CC1(c2cc(NC(=O)Nc3ccc(-c4ccc(N)nc4)cc3)no2)COC1.CS(=O)(=O)O [Example 98, 5-(4-(3-(5-(3-methyloxetan-3-yl)isoxazol-3-yl)ureido)phenyl)pyridin-2-aminium methanesulfonate]
≤ 10 | ≤ 1 | B (0.1<B≦0.2 nM) | ≤ 1 | 10 to 100 |  | CC(C)(C)c1cc(NC(=O)Nc2ccc(-c3cnc(NC4CC4)nc3)cn2)no1 [Example 64, 1-(5-tert-butylisoxazol-3-yl)-3-[5-(2-cyclopropylaminopyrimidin-5-yl)-pyridin-2-yl]-urea]
